Experimental data published in PubChem BioAssay AID1259411 (Chemical Carcinogenesis Research Information System (CCRIS), 2018).
Calls of active or inactive are those of the source. No rule for the calls is given here.

System: rodent carcinogenicity bioassays, tumor incidence
Experiment: CCRIS carcinogenicity studies
Summary of the method: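 NCI-built, expert-reviewed records of carcinogenicity and related test outcomes (mutagenicity, tumor promotion/inhibition) compiled from published and report sources, historical span 1985-2011, not updated.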

What does the source list for Nc1ccc(Cl)c(N)c1?
carcinogen call (Species: MOUSE, Strain/Sex: B6C3F1/FEMALE, Route: ORAL, Dose: 0, 0.7, 1.4% OF DIET, TWA, Dose: 0, 0.7, 1.4% OF DIET, TWA, Tumor Site: Type of Lesion: LIVER: HEPATOCELLULAR ADENOMA OR HEPATOCELLULAR CARCINOMA): active; positive; carcinogen call (Species: MOUSE, Strain/Sex: B6C3F1/MALE, Route: ORAL, Dose: 0, 0.7, 1.4% OF DIET, TWA, Dose: 0, 0.7, 1.4% OF DIET, TWA): inactive; negative; carcinogen call (Species: RAT, Strain/Sex: F344/FEMALE, Route: ORAL, Dose: 0, 0.2, 0.4% OF DIET, Dose: 0, 0.2, 0.4% OF DIET): inactive; negative; carcinogen call (Species: RAT, Strain/Sex: F344/MALE, Route: ORAL, Dose: 0, 0.2, 0.4% OF DIET, Dose: 0, 0.2, 0.4% OF DIET, Tumor Site: Type of Lesion: ADRENAL GLAND: PHEOCHROMOCYTOMA): active; positive

For CC1OCCN1N=O (stereo not drawn), which carcinogen call (Species: RAT, Strain/Sex: F344/FEMALE, Route: ORAL, Dose: 40 MG/L IN DRINKING WATER FOR 50 WK, Tumor Site: Type of Lesion: LIVER: HEPATOCELLULAR CARCINOMA, HEMANGIOENDOTHELIAL SARCOMA) is on record?
The carcinogen call was “active; positive”.

How did the carcinogen call (Species: RAT, Strain/Sex: F344/FEMALE, Route: IMPLANT, Dose: 0, 10, 100 µL INTO VENTRAL LIVER CAPSULE ONCE (STUDY DURATION: 2 YR), Dose: 0, 10, 100 µL INTO VENTRAL LIVER CAPSULE ONCE (STUDY DURATION: 2 YR), Tumor Site: Type of Lesion: BODY CAVITY: SARCOMA) turn out when C=C(C#N)C(=O)OCC(C)C was run?
Its carcinogen call is “active; positive”.

What about the carcinogen call (Species: RAT, Strain/Sex: F344/MALE, Route: IMPLANT, Dose: 0, 10, 100 µL INTO VENTRAL LIVER CAPSULE ONCE (STUDY DURATION: 2 YR), Dose: 0, 10, 100 µL INTO VENTRAL LIVER CAPSULE ONCE (STUDY DURATION: 2 YR), Tumor Site: Type of Lesion: BODY CAVITY: SARCOMA) of the same compound?
The carcinogen call was “active; positive”.

C=O was tested. Which carcinogen call (Species: Hamster, Strain/Sex: Syrian golden/Male (132/Control group; 88/Experimental group), Route: Inhalation, Dose: 10 ppm 5 hr/day, 5 d/wk for life, study duration was lifetime of the animal) did it give?
Its carcinogen call is “inactive; negative”.

And the carcinogen call (Species: Mouse, Strain/Sex: B6C3F1/Female (120/Group with sacrifices at 6, 12 and 24 mo), Route: Inhalation, Dose: 0, 2, 6, 15 ppm 6 hr/d, 5 d/wk for 24 mo, study duration 24 mo, Dose: 0, 2, 6, 15 ppm 6 hr/d, 5 d/wk for 24 mo, study duration 24 mo)?
The carcinogen call was “inactive; negative. dose-related non-neoplastic nasal lesions were observed”.

And the carcinogen call (Species: Mouse, Strain/Sex: B6C3F1/Male (120/Group with sacrifices at 6, 12 and 24 mo), Route: Inhalation, Dose: 0, 2, 6, 15 ppm 6 hr/d, 5 d/wk for 24 mo, study duration 24 mo, Dose: 0, 2, 6, 15 ppm 6 hr/d, 5 d/wk for 24 mo, study duration 24 mo, Tumor Site: Type of Lesion: Nasal passages)?
Its carcinogen call is “active; positive. dose-related non-neoplastic nasal lesions also observed”.

And the carcinogen call (Species: RAT, Strain/Sex: F344/FEMALE, Route: INHALATION, Dose: 0, 2, 6, 15 PPM, Dose: 0, 2, 6, 15 PPM, Tumor Site: Type of Lesion: NASAL TURBINATES: SQUAMOUS CELL CARCINOMA)?
Its carcinogen call is “active; positive”.

What about the carcinogen call (Species: RAT, Strain/Sex: F344/MALE, Route: INHALATION, Dose: 0, 0.3, 2, 15 PPM 6 HR/D 5 D/WK FOR 28 MO (STUDY DURATION: 28 MO), Dose: 0, 0.3, 2, 15 PPM 6 HR/D 5 D/WK FOR 28 MO (STUDY DURATION: 28 MO), Tumor Site: Type of Lesion: NASAL CAVITY: SQUAMOUS CELL CARCINOMA, SQUAMOUS CELL PAPILLOMA) of the same compound?
Its carcinogen call is “active; positive”.

What about the carcinogen call (Species: RAT, Strain/Sex: F344/MALE, Route: INHALATION, Dose: 0, 2, 6, 15 PPM, Dose: 0, 2, 6, 15 PPM, Tumor Site: Type of Lesion: NASAL TURBINATES: SQUAMOUS CELL CARCINOMA) of the same compound?
The carcinogen call was “active; positive”.

What about the carcinogen call (Species: RAT, Strain/Sex: SPRAGUE-DAWLEY/FEMALE, Route: ORAL, Dose: 0, 10, 50, 100, 500, 1000, 1500 PPM IN DRINKING WATER FOR 104 WK (STUDY DURATION: LIFETIME), Dose: 0, 10, 50, 100, 500, 1000, 1500 PPM IN DRINKING WATER FOR 104 WK (STUDY DURATION: LIFETIME), Tumor Site: Type of Lesion: LYMPHATIC SYSTEM: LEUKEMIA, GASTROINTESTINAL SYSTEM: TUMOR) of the same compound?
The carcinogen call was “active; positive”.

And the carcinogen call (Species: RAT, Strain/Sex: SPRAGUE-DAWLEY/MALE, Route: INHALATION, Dose: 14.2 PPM 6 HR/DAY, 5 DAY/WK, Tumor Site: Type of Lesion: NASAL CAVITY: SQUAMOUS CELL CARCINOMA)?
The carcinogen call was “active; positive”.

And the carcinogen call (Species: RAT, Strain/Sex: SPRAGUE-DAWLEY/MALE, Route: ORAL, Dose: 0, 10, 50, 100, 500, 1000, 1500 PPM IN DRINKING WATER FOR 104 WK (STUDY DURATION: LIFETIME), Dose: 0, 10, 50, 100, 500, 1000, 1500 PPM IN DRINKING WATER FOR 104 WK (STUDY DURATION: LIFETIME), Tumor Site: Type of Lesion: LYMPHATIC SYSTEM: LEUKEMIA, GASTROINTESTINAL SYSTEM: TUMOR)?
Its carcinogen call is “active; positive”.

What about the carcinogen call (Species: RAT, Strain/Sex: WISTAR/FEMALE, Route: ORAL, Dose: 0, 1.8, 21 MG/KG IN DRINKING WATER FOR UP TO 24 MO (STUDY DURATION: 105 WK), Dose: 0, 1.8, 21 MG/KG IN DRINKING WATER FOR UP TO 24 MO (STUDY DURATION: 105 WK)) of the same compound?
The carcinogen call was “inactive; negative”.

And the carcinogen call (Species: RAT, Strain/Sex: WISTAR/MALE, Route: INHALATION, Dose: 0, 0.1, 1.0, 10 PPM 6HR/D, 5D/WK FOR 3 MO (STUDY DURATION: 29 MO), Dose: 0, 0.1, 1.0, 10 PPM 6HR/D, 5D/WK FOR 3 MO (STUDY DURATION: 29 MO))?
Its carcinogen call is “inactive; negative”.

What about the carcinogen call (Species: RAT, Strain/Sex: WISTAR/MALE, Route: INHALATION, Dose: 0, 0.1, 1.0, 10 PPM 6HR/D, 5D/WK FOR 28 MO (STUDY DURATION: 29 MO), Dose: 0, 0.1, 1.0, 10 PPM 6HR/D, 5D/WK FOR 28 MO (STUDY DURATION: 29 MO)) of the same compound?
Its carcinogen call is “inactive; negative”.

What about the carcinogen call (Species: RAT, Strain/Sex: WISTAR/MALE, Route: ORAL, Dose: 0, 1.2, 15 MG/KG IN DRINKING WATER FOR UP TO 24 MO (STUDY DURATION: 105 WK), Dose: 0, 1.2, 15 MG/KG IN DRINKING WATER FOR UP TO 24 MO (STUDY DURATION: 105 WK)) of the same compound?
Its carcinogen call is “inactive; negative”.

Which carcinogen call (Species: Mouse, Strain/Sex: ICR (Crj:CD-1)/Female (50/Group), Route: Oral, Dose: 0, 25, 100, 400, 800 ppm (0; 2.4; 10.2; 41.4; 73.1 mg/kg/day) for 18 mo, study duration 18 mo, Dose: 0, 25, 100, 400, 800 ppm (0; 2.4; 10.2; 41.4; 73.1 mg/kg/day) for 18 mo, study duration 18 mo) does the source give for Cc1nn(C)c(Oc2ccccc2)c1/C=N/OCc1ccc(C(=O)OC(C)(C)C)cc1 here?
The carcinogen call was “inactive; negative”.

What about the carcinogen call (Species: Mouse, Strain/Sex: ICR (Crj:CD-1)/Male (50/Group), Route: Oral, Dose: 0, 25, 100, 400, 800 ppm (0; 2.4; 9.5; 38.0; 69.6 mg/kg/day) for 18 mo, study duration 18 mo, Dose: 0, 25, 100, 400, 800 ppm (0; 2.4; 9.5; 38.0; 69.6 mg/kg/day) for 18 mo, study duration 18 mo) of the same compound?
Its carcinogen call is “inactive; negative”.

And the carcinogen call (Species: Rat, Strain/Sex: CD/Female (50/Group), Route: Oral, Dose: 0, 10, 25, 75, 150 ppm of 97.2% fenpyroximate (0; 0.49; 1.21; 3.81; 8.01 mg/kg/day) for 104 wk, study duration 104 wk, Dose: 0, 10, 25, 75, 150 ppm of 97.2% fenpyroximate (0; 0.49; 1.21; 3.81; 8.01 mg/kg/day) for 104 wk, study duration 104 wk)?
Its carcinogen call is “inactive; negative”.

And the carcinogen call (Species: Rat, Strain/Sex: CD/Male (50/Group), Route: Oral, Dose: 0, 10, 25, 75, 150 ppm of 97.2% fenpyroximate (0; 0.40; 0.97; 3.00; 6.20 mg/kg/day) for 104 wk, study duration 104 wk, Dose: 0, 10, 25, 75, 150 ppm of 97.2% fenpyroximate (0; 0.40; 0.97; 3.00; 6.20 mg/kg/day) for 104 wk, study duration 104 wk)?
The carcinogen call was “inactive; negative”.

Which results are given for NC(=O)N(CCO)N=O?
carcinogen call (Species: HAMSTER, Strain/Sex: SYRIAN/FEMALE, Route: GAVAGE, Dose: 0, 14 MG/ML ((0.2 ML OF A SOLUTION IN ETHYL ACETATE/CORN OIL (1:2)) 1/WK FOR 22 WK (STUDY DURATION: LIFE SPAN), Tumor Site: Type of Lesion: LIVER: HEMANGIOSARCOMA, SPLEEN: HEMANGIOSARCOMA): active; positive; carcinogen call (Species: HAMSTER, Strain/Sex: SYRIAN/MALE, Route: GAVAGE, Dose: 0, 14 MG/ML ((0.2 ML OF A SOLUTION IN ETHYL ACETATE/CORN OIL (1:2)) 1/WK FOR 22 WK (STUDY DURATION: 20 WK), Tumor Site: Type of Lesion: LIVER: HEMANGIOSARCOMA, PANCREAS: CARCINOMA OR ADENOMA, SPLEEN: HEMANGIOSARCOMA, FORESTOMACH: SQUAMOUS CELL CARCINOMA OR, Tumor Site: Type of Lesion: LIVER: HEMANGIOSARCOMA, PANCREAS: CARCINOMA OR ADENOMA, SPLEEN: HEMANGIOSARCOMA, FORESTOMACH: SQUAMOUS CELL CARCINOMA OR): active; positive; carcinogen call (Species: RAT, Strain/Sex: F344/MALE, Route: GAVAGE, Dose: 0, 2.4 MG IN 0.2 ML ETHYL ACETATE/CORN OIL (1:1) 2/WK FOR 30 WK (TOTAL DOSE: 168 MG) (STUDY DURATION: 80 WK), Tumor Site: Type of Lesion: LUNG: CARCINOMA OR ADENOMA, THYROID: CARCINOMA OR ADENOMA): active; positive

How did the carcinogen call (Species: MOUSE, Strain/Sex: ICR/FEMALE, Route: SUBCUTANEOUS, Dose: 0, 10 UMOL/MOUSE IN TRIOCTANOIN INTO LEFT FLANK, 1/WK FOR 139 D (STUDY DURATION: 139 D), Tumor Site: Type of Lesion: THYMUS GLAND: LYMPHOMA) turn out when CC(C)OS(C)(=O)=O was run?
Its carcinogen call is “active; positive”.
